The subject of data set [1] is S. aureus strains. Nature of the data set: MIC determination, S. aureus strains. It is filed as cell-based, Staphylococcus aureus. The settings on record: for MIC: Staphylococcus aureus, S. aureus strains, lowest value quoted in text; for MIC range: tested Staphylococcus spp. On the procedure:
(§1) Before analysis, compounds 5a–f were dissolved in 96% ethanol in a concentration of 2 mg/ml as stock solutions. Inoculums were prepared with fresh cultures of microbial strains, cultured on tryptic-soy agar or Sabouraud 2% (m/v) dextrose agar for 18 h (48–72 h for fungi) at 30 °C with physiological saline containing approximately […]. Inoculum density (0.5 McFarland units) was adjusted with a bio Mériex (France) densitometer. Minimum inhibitory concentration (MIC) was determined by the twofold micro-dilution method in Mu¨ller–Hinton broth for bacterial strains and RPMI 1640 + 2% m/v dextrose for fungi according to the EUCAST recommendations in a sterile 96-well flat-bottom plastic tissue culture plate. MIC was determined using a linear regression curve after incubation of compounds and reading the optical density at 570 nm using an iEMS microplate reader. […] All tests were performed in triplicate and expressed as the mean.

Data set [2] can be described thus: Inhibition of linoleic acid peroxidation (LP), AAPH-initiated. The arrangement: tested at 100 µM. Particulars: 100 μΜ, 37 °C. On the procedure: To initiate lipid peroxidation, the free radical AAPH was used[10]. The final solution in the UV cuvette consisted of 10 µl sodium linoleate solution (c = 16 mM) and 0.93 ml phosphate buffer pH 7.4 (c = 50 mM). Afterwards, 10 µl of the tested compound solution in DMSO (final concentration 0.1 mM) and 50 µl of AAPH solution (c = 40 mM) were added. The experiment was performed at 37 °C under air. Oxidation of linoleic acid sodium salt was monitored at 234 nm. The assay was repeated at least in triplicate and the standard deviation of absorbance was less than 10% of the mean. Trolox was used under the same experimental conditions as a reference compound.

In data set [3] the test system is E. coli (both strains). The data set can be described thus: Minimum biofilm eradication assay, E. coli both strains. Type of data set: cell-based, Escherichia coli. On the procedure:
We tested the susceptibility of different bacterial and yeast strains to compounds 5a–f by determining the minimum biofilm eradication concentration (MBEC). The test was performed in a sterile 96-well flat-bottom plastic tissue culture plate (TPP, Switzerland). Each well was filled with 100 µl of bacterial (10^7 CFUs/ml) or yeast (5 × 10^6 CFUs/ml) suspension. When the possibility of inhibition of yeast biofilm formation was tested, the wells were pre-treated with FBS (250 µl per well). Negative controls contained broth only. Positive controls were performed using standard antibacterial and antifungal drugs gentamycin and amphotericin B, respectively. The plates were covered and incubated aerobically for 24 h (bacteria) or 48 h (yeast) at 37 °C. Following the incubation period, each well was aspirated and washed three times with 250 µl of PBS and vigorously shaken in order to remove all non-adherent bacteria/yeast. The remaining attached cells were fixed with methanol (15 min) and the plates were left to dry overnight. The formed biofilm was stained with crystal violet (1%, 5 min). Excess stain was rinsed by placing the plate under running tap water and the plates were left to dry for 24 h. Adherent cells were resolubilized with acetic acid (33%, v/v). The optical density of each well was measured at 570 nm using a Multiscan plate reader. […]

Data set [4] deals with E. coli. Nature of the data set: MIC determination, E. coli as summarised in text. Type of data set: cell-based. The settings on record: Escherichia coli, both strains. On the procedure: as §1

≈ marks a conversion by molar mass, not a printed value.

By MIC is commonly meant the least concentration at which growth counts as inhibited. By melting point is commonly meant the temperature, or range, at which the solid turns liquid. Consider `COc1cc(NC(C)CCCNC(=O)NC(CC(C)C)C(=O)NC(c2ccccc2)c2ccccc2)c2ncccc2c1` (stereo not drawn) [Compound 5a, N-(diphenylmethyl)-2-[({4-[(6-methoxyquinolin-8-yl)amino]pentyl}carbamoyl)amino]-4-methylpentanamide], for which the melting point was 184.5 to 185.5 °C. In data set [1], this molecule returned an MIC of 6.5 µg/mL (≈ 11.2 µM) and an MIC range of 6.5 to 15 µg/mL. Further, the “LP inhibition (%) ± SD” value in data set [2] is listed as 15 ± 0.7%.
As for `COc1cc(NC(C)CCCN)c2ncccc2c1` (stereo not drawn) [PQ, 8-[(4-amino-1-methylbutyl)amino]-6-methoxyquinoline, reference compound], the MBEC in data set [3] was 25 µg/mL.
In the case of `COc1cc(NC(C)CCCNC(=O)NC(C(=O)NC(c2ccccc2)c2ccc(Cl)cc2)c2ccc(Cl)cc2)c2ncccc2c1` (stereo not drawn) [Compound 5e, 2–(4-chlorophenyl)-N-[(4-chlorophenyl)(phenyl)methyl]-2-[({4-[(6-methoxyquinolin-8-yl)amino]pentyl}carbamoyl)amino]acetamide], the melting point fell in the range of 150 to 151.5 °C. The molecule also showed an MIC in data set [4] of 45 to 60 µg/mL (≈ 67.1 to 89.5 µM). The “LP inhibition (%) ± SD” value in data set [2] came to 80 ± 2.7%.
`COc1cc(NC(C)CCCNC(=O)NC(C(=O)NC(c2ccccc2)c2ccc(Cl)cc2)c2ccccc2)c2ncccc2c1` (stereo not drawn) [Compound 5c, N-[(4-chlorophenyl)(phenyl)methyl]-2-[({4-[(6-methoxyquinolin-8-yl)amino]pentyl}carbamoyl)amino]-2-phenylacetamide]: the “LP inhibition (%) ± SD” value in data set [2] came to 99 ± 2.8%.
Turning to `COc1ccc(C(=NNC(=O)C(NC(=O)NCCCC(C)Nc2cc(OC)cc3cccnc23)c2ccc(Cl)cc2)c2ccccc2)cc1` (stereo not drawn) [Compound 5f, 3-[(4-chlorophenyl)({N'-[(4-methoxyphenyl)(phenyl)methylidene]hydrazinecarbonyl})methyl]-1-{4-[(6-methoxyquinolin-8-yl)amino]pentyl}urea], the “LP inhibition (%) ± SD” value in data set [2] stood at 90 ± 3.6%.
Consider `COc1cc(NC(C)CCCNC(=O)NC(C(=O)N(C)C(c2ccccc2)c2ccccc2)c2ccccc2)c2ncccc2c1` (stereo not drawn) [Compound 5b, N-(diphenylmethyl)-2-[({4-[(6-methoxyquinolin-8-yl)amino]pentyl}carbamoyl)amino]-N-methyl-2-phenylacetamide], for which, in data set [2], the “LP inhibition (%) ± SD” value came out at 92 ± 3.2%.
In the case of `COc1cc(NC(C)CCCNC(=O)NC(C(=O)NC(c2ccccc2)c2ccccc2)c2ccc(Cl)cc2)c2ncccc2c1` (stereo not drawn) [Compound 5d, 2–(4-chlorophenyl)-N-(diphenylmethyl)-2-[({4-[(6-methoxyquinolin-8-yl)amino]pentyl}carbamoyl)amino]acetamide], the melting point was in the range of 180 to 183 °C. Also, in data set [1], the MIC came out at 6.5 µg/mL (≈ 10.2 µM) and the MIC range is 12.5 to 25 µg/mL. Besides, the “LP inhibition (%) ± SD” value in data set [2] worked out at 90 ± 4.5%.

Source of the values: PMC6021035, “Insights into biological activity of ureidoamides with primaquine and amino acid moieties” (Journal of Enzyme Inhibition and Medicinal Chemistry, 2018).
